These molecules were tested against T1, B1R receptor of the rat (rB1R) (Rattus norvegicus, UniProt P97583) (assay: Functional investigation on the bradykinin 1 receptor (B1R), FLIPR Ca2+ assay, rB1R cells). Conditions: 10 μM test substance; CHO K1 cells with rat B1R; agonist Des-Arg9 bradykinin; % of maximum achievable inhibition; 10 µM.
T1 construct: expressed in transfected cells; host or cells: CHO K1 cells
T1 sequence (P97583 1-337): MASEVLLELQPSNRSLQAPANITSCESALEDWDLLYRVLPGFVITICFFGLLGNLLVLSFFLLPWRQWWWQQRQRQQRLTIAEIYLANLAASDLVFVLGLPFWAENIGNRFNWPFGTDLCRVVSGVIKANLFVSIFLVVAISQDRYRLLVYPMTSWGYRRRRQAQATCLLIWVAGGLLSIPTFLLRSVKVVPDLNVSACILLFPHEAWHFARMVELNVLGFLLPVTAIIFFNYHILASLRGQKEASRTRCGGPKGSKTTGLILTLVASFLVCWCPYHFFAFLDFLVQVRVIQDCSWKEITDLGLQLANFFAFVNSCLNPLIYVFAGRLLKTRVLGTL
Format: cell-based
Outline: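 Cells plated at 20,000-35,000/well, incubated overnight at 37° C, loaded with Fluo-4 (2.13 μM, 60 min, 37° C, or 2.5 μM in buffer A), then read in FLIPR (λex 488, λem 540 nm). Agonist: Lys-Des-[MUT] bradykinin (0.5 nM) or Des-[MUT] bradykinin (100 nM). IC50 from % inhibition versus maximum, n=2-3, N>=2.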

B1R antagonism, rat [10 μM] % inhibition [%] | SMILES
95 | O=C(CCn1ccc2ccc(N3Cc4cccc(Cl)c4C3=O)cc21)N1CCC2(CC1)CCN(c1ccncc1)CC2 [G_CC-67, 7-Chloro-2-[1-[3-oxo-3-(3-pyridin-4-yl-3,9-diazaspiro[5.5]undecan-9-yl)-propyl]-1H-indol-6-yl]-2,3-dihydro-isoindol-1-one]

Same assay, conditions: CHO-K1, 10 μM test substance; CHO K1 cells with rat B1R; agonist Des-Arg9 bradykinin; % of maximum achievable inhibition; read-out: B1R antagonism, rat [10 μM] % inhibition

inhibition at 10 µM [%] | SMILES
96 | COc1cc(C)c(S(=O)(=O)Nc2cccc3ccn(CC(=O)N4CCC5(CCN(c6ccncc6)CC5)C4)c23)c(C)c1 [Compound G-14, 4-Methoxy-2,6-dimethyl-N-(1-(2-oxo-2-(8-(pyridin-4-yl)-2,8-diazaspiro[4.5]decan-2-yl)ethyl)-1H-indol-7-yl)benzenesulfonic acid amide]
54 | O=C(Cn1ccc2ccc(N3Cc4cccc(Cl)c4C3=O)cc21)N1CCC2(CC1)CC(c1ccncc1)=NO2 [Compound G-15, 7-Chloro-2-(1-(2-oxo-2-(3-(pyridin-4-yl)-1-oxa-2,8-diazaspiro[4.5]dec-2-en-8-yl)ethyl)-1H-indol-6-yl)isoindolin-1-one]
96 | COc1cc(C)c(S(=O)(=O)Nc2cccc3ccn(CC(=O)N4CCC(N5CCc6cc(CN7CCCCC7)ccc6C5)C4)c23)c(C)c1 (stereo not shown) [Compound G-16, 4-Methoxy-2,6-dimethyl-N-(1-(2-oxo-2-(3-(6-(piperidin-1-ylmethyl)-3,4-dihydroisoquinolin-2(1H)-yl)pyrrolidin-1-yl)ethyl)-1H-indol-7-yl)benzenesulfonic acid amide]
95 | COc1cc(C)c(S(=O)(=O)Nc2cccc3ccn(CC(=O)N4CCC5(CCN(c6ccncc6)C5)C4)c23)c(C)c1 (stereo not shown) [Compound G-17, 4-Methoxy-2,6-dimethyl-N-(1-(2-oxo-2-(7-(pyridin-4-yl)-2,7-diazaspiro[4.4]nonan-2-yl)ethyl)-1H-indol-7-yl)benzenesulfonic acid amide]
99 | COc1cc(C)c(S(=O)(=O)Nc2cccc3ccn(CC(=O)N4CCC5(CCC(N6CCC6)CC5)CC4)c23)c(C)c1 [Compound G-18, N-(1-(2-(9-(azetidin-1-yl)-3-azaspiro[5.5]undecan-3-yl)-2-oxoethyl)-1H-indol-7-yl)-4-methoxy-2,6-dimethylbenzenesulfonic acid amide]
94 | O=C(Cn1ccc2ccc(N3Cc4cccc(Cl)c4C3=O)cc21)N1CCC2(CCC(Oc3ccncc3)CC2)CC1 [Compound G-19, 7-Chloro-2-(1-(2-oxo-2-(9-(pyridin-4-yloxy)-3-azaspiro[5.5]undecan-3-yl)ethyl)-1H-indol-6-yl)isoindolin-1-one]
13 | O=C(Cn1ccc2ccc(N3Cc4cccc(Cl)c4C3=O)cc21)N1CCC2(CCC(N3CC(F)(F)C3)CC2)CC1 [Compound G-20, 7-Chloro-2-(1-(2-(9-(3,3-difluoroazetidin-1-yl)-3-azaspiro[5.5]undecan-3-yl)-2-oxoethyl)-1H-indol-6-yl)isoindolin-1-one]
43 | O=C(Cn1ccc2ccc(N3Cc4cccc(Cl)c4C3=O)cc21)N1CCC2(CCC(N3CCC3)CC2)CC1 [Compound G-21, 2-(1-(2-(9-(Azetidin-1-yl)-3-azaspiro[5.5]undecan-3-yl)-2-oxoethyl)-1H-indol-6-yl)-7-chloroisoindolin-1-one]
99 | COc1cc(C)c(S(=O)(=O)Nc2cccc3ccn(CC(=O)N4CCC5(CCC(Oc6ccncc6)CC5)CC4)c23)c(C)c1 [Compound G-22, 4-Methoxy-2,6-dimethyl-N-(1-(2-oxo-2-(9-(pyridin-4-yloxy)-3-azaspiro[5.5]undecan-3-yl)ethyl)-1H-indol-7-yl)benzenesulfonic acid amide]
106 | Cn1c2c(c3c(Cl)cccc31)C(=O)N(c1ccc3ccn(CC(=O)N4CCC5(CC4)CCN(c4ccncc4)CC5)c3c1)C2 [Compound G-23, 8-Chloro-4-methyl-2-[1-[2-oxo-2-(9-pyridin-4-yl-3,9-diazaspiro[5.5]undecan-3-yl)-ethyl]-1H-indol-6-yl]-3,4-dihydro-2H-pyrrolo[3,4-b]indol-1-one]
103 | COc1cc(C)c(S(=O)(=O)NCc2cccc3ccn(CC(=O)N4CCC5(CC4)CCN(c4ccncc4)CC5)c23)c(C)c1 [Compound G-24, 4-Methoxy-2,6-dimethyl-N-[[1-[2-oxo-2-(9-pyridin-4-yl-3,9-diazaspiro[5.5]undecan-3-yl)-ethyl]-1H-indol-7-yl]-methyl]-benzenesulfonic acid amide]
102 | Cc1cccc2c1C(=O)N(c1ccc3ccn(CC(=O)N4CCC5(CC4)CCN(c4ccncc4)CC5)c3c1)C2 [Compound G-26, 7-Methyl-2-[1-[2-oxo-2-(9-pyridin-4-yl-3,9-diazaspiro[5.5]undecan-3-yl)-ethyl]-1H-indol-6-yl]-2,3-dihydro-isoindol-1-one]
99 | Cc1ccc2n1C(=O)N(c1ccc3ccn(CC(=O)N4CCC5(CC4)CCN(c4ccncc4)CC5)c3c1)C2 [Compound G-27, 5-Methyl-2-[1-[2-oxo-2-(9-pyridin-4-yl-3,9-diazaspiro[5.5]undecan-3-yl)-ethyl]-1H-indol-6-yl]-1,2-dihydro-pyrrolo[2,1-e]imidazol-3-one]
54 | O=C(Cn1ccc2ccc(N3CCn4c(c(Cl)c5ccccc54)C3=O)cc21)N1CCC2(CC1)CCN(c1ccncc1)CC2 [Compound G-31, 10-Chloro-2-[1-[2-oxo-2-(9-pyridin-4-yl-3,9-diazaspiro[5.5]undecan-3-yl)-ethyl]-1H-indol-6-yl]-3,4-dihydro-2H-pyrazino[1,2-a]indol-1-one]
46 | O=C(Cn1ccc2ccc(N3CCn4ccc(Cl)c4C3=O)cc21)N1CCC2(CC1)CCN(c1ccncc1)CC2 [Compound G-33, 8-Chloro-2-[1-[2-oxo-2-(9-pyridin-4-yl-3,9-diazaspiro[5.5]undecan-3-yl)-ethyl]-1H-indol-6-yl]-3,4-dihydro-2H-pyrrolo[1,2-a]pyrazin-1-one]
70 | COc1cc(C)c(S(=O)(=O)Nc2ccc3ccn(CC(=O)N4CCC(N5CCN(C)CC5)CC4)c3c2)c(C)c1 [G_CC-2, 4-Methoxy-2,6-dimethyl-N-[1-[2-[4-(4-methyl-piperazin-1-yl)-piperidin-1-yl]-2-oxo-ethyl]-1H-indol-6-yl]-benzenesulfonic acid amide]
100 | Cc1cc(S(=O)(=O)Nc2ccc3ccn(CC(=O)N4CCN(CC5CCN(C)CC5)CC4)c3c2)c(C)cc1Cl [G_CC-8, 4-Chloro-2,5-dimethyl-N-[1-[2-[4-[(1-methyl-piperidin-4-yl)-methyl]-piperazin-1-yl]-2-oxo-ethyl]-1H-indol-6-yl]-benzenesulfonic acid amide]
101 | COc1cc(C)c(S(=O)(=O)Nc2cccc3ccn(CC(=O)N4CCC5(CC4)CCN(Cc4ccccc4)C5=O)c23)c(C)c1 [G_CC-32, N-[1-[2-(3-Benzyl-4-oxo-3,8-diazaspiro[4.5]decan-8-yl)-2-oxo-ethyl]-1H-indol-7-yl]-4-methoxy-2,6-dimethyl-benzenesulfonic acid amide]
103 | COc1cc(C)c(S(=O)(=O)Nc2cccc3ccn(CCC(=O)N4CCN(CC5CCN(C)CC5)CC4)c23)c(C)c1 [G_CC-43, 4-Methoxy-2,6-dimethyl-N-[1-[3-[4-[(1-methyl-piperidin-4-yl)-methyl]-piperazin-1-yl]-3-oxo-propyl]-1H-indol-7-yl]-benzenesulfonic acid amide]
102 | COc1cc(C)c(S(=O)(=O)Nc2cccc3ccn(CCC(=O)NCCC4CCN(c5ccncc5)CC4)c23)c(C)c1 [G_CC-47, 3-[7-[[(4-Methoxy-2,6-dimethyl-phenyl)sulfonyl]amino]-1H-indol-1-yl]-N-[2-(1-pyridin-4-yl-piperidin-4-yl)-ethyl]-propionamide]
96 | COc1cc(C)c(S(=O)(=O)Nc2cccc3ccn(CCC(=O)N4CCC5(CC4)CCN(c4ccncc4)CC5)c23)c(C)c1 [G_CC-54, 4-Methoxy-2,6-dimethyl-N-[1-[3-oxo-3-(3-pyridin-4-yl-3,9-diazaspiro[5.5]undecan-9-yl)-propyl]-1H-indol-7-yl]-benzenesulfonic acid amide]
99 | Cc1cc(S(=O)(=O)Nc2cccc3ccn(CCC(=O)N4CCN(CC5CCN(C)CC5)CC4)c23)c(C)cc1Cl [G_CC-62, 4-Chloro-2,5-dimethyl-N-[1-[3-[4-[(1-methyl-piperidin-4-yl)-methyl]-piperazin-1-yl]-3-oxo-propyl]-1H-indol-7-yl]-benzenesulfonic acid amide]
104 | COc1cc(C)c(S(=O)(=O)Nc2ccc3ccn(CC(=O)N(C)CCCN4CCN(c5ccncc5)CC4)c3c2)c(C)c1 [G_CC-76, 2-[6-[[(4-Methoxy-2,6-dimethyl-phenyl)sulfonyl]amino]-1H-indol-1-yl]-N-methyl-N-[3-(4-pyridin-4-yl-piperazin-1-yl)-propyl]-acetamide]
101 | COc1cc(C)c(S(=O)(=O)Nc2cccc3ccn(CC(=O)N(C)CCCN4CCN(c5ccncc5)CC4)c23)c(C)c1 [G_CC-88, 2-[7-[[(4-Methoxy-2,6-dimethyl-phenyl)sulfonyl]amino]-1H-indol-1-yl]-N-methyl-N-[3-(4-pyridin-4-yl-piperazin-1-yl)-propyl]-acetamide]

— US8492559B2, “Substituted indole compounds” (Gruenenthal GmbH, priority 2009, dated 2013)
